Results reported in the NIST ThermoML archive (doi:10.1016/j.jct.2012.05.021).
Numbers after ± are expanded uncertainties.

Conditions: Crystal; visual observation

| SMILES | Normal melting temperature [°C] |
| --- | --- |
| CC(C)NCC(O)COc1ccc(CC(N)=O)cc1 (configuration not stated) [2-(4-(2-hydroxy-3-(isopropylamino)propoxy)phenyl)acetamide] | 154.50 ± 0.4 |
| CC(C)NCC(O)COc1cccc2ccccc12.Cl (configuration not stated) [propranolol hydrochloride] | 164.80 ± 0.4 |
